Assay results from ChEMBL document CHEMBL1201862, “PubChem BioAssay data set” (2004).
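Protocol summary: plate cells (96-well), add compound at 5 concentrations, incubate 48 h, interpolate endpoints linearly. GI50 is the concentration that inhibits growth by half.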 Activity calls are given as the source filed them. Cut-off read from the data, not from the text of the source: active = GI50 up to about 1.1 µM and inactive = higher.

Key:
Experiment in all cases: NCI anticancer screen, dose series, 48 h
[1] = system: 786-0
[2] = system: A498
[3] = system: A549
[4] = system: ACHN
[5] = system: BT-549
[6] = system: CAKI-1
[7] = system: CCRF-CEM
[8] = system: COLO 205
[9] = system: DU-145
[10] = system: EKVX
[11] = system: HCT-116
[12] = system: HCT-15
[13] = system: HL-60
[14] = system: HOP-62
[15] = system: HT-29
[16] = system: Hs-578T
[17] = system: IGROV-1
[18] = system: K562
[19] = system: KM12
[20] = system: LOX IMVI
[21] = system: M14
[22] = system: MCF7
[23] = system: MDA-MB-231
[24] = system: MDA-MB-435
[25] = system: MDA-N
[26] = system: MOLT-4
[27] = system: Malme-3M
[28] = system: NCI-H226
[29] = system: NCI-H23
[30] = system: NCI-H460
[31] = system: NCI-H522
[32] = system: NCI/ADR-RES
[33] = system: OVCAR-3
[34] = system: OVCAR-4
[35] = system: OVCAR-5
[36] = system: OVCAR-8
[37] = system: PC-3
[38] = system: RXF 393
[39] = system: SF-268
[40] = system: SF-295
[41] = system: SK-MEL-28
[42] = system: SK-MEL-2
[43] = system: SK-MEL-5
[44] = system: SK-OV-3
[45] = system: SN12C
[46] = system: SNB-19
[47] = system: SW-620
[48] = system: T47D
[49] = system: TK-10
[50] = system: U-251
[51] = system: UACC-257
[52] = system: UACC-62
[53] = system: UO-31

Nc1ccc(Oc2ccc(C34CC5CC(C3)CC(c3ccc(Oc6ccc(N)cc6C(F)(F)F)cc3)(C5)C4)cc2)c(C(F)(F)F)c1
GI50 [1]: 31.6 µM (inactive)
GI50 [2]: 18.3 µM (inactive)
GI50 [3]: 19.1 µM (inactive)
GI50 [4]: 32.9 µM (inactive)
GI50 [5]: 21.9 µM (inactive)
GI50 [6]: 28.1 µM (inactive)
GI50 [7]: 36.1 µM (inactive)
GI50 [8]: 19.1 µM (inactive)
GI50 [9]: 35.2 µM (inactive)
GI50 [10]: 15.5 µM (inactive)
GI50 [11]: 24.9 µM (inactive)
GI50 [12]: 31.8 µM
GI50 [13]: 24.2 µM (inactive)
GI50 [14]: 18.2 µM (inactive)
GI50 [15]: 17.2 µM (inactive)
GI50 [16]: 17.1 µM (inactive)
GI50 [17]: 19.5 µM (inactive)
GI50 [18]: 44 µM (inactive)
GI50 [19]: 21 µM (inactive)
GI50 [20]: 17.9 µM (inactive)
GI50 [21]: 16.9 µM (inactive)
GI50 [22]: 13.4 µM (inactive)
GI50 [23]: 15.2 µM (inactive)
GI50 [24]: 24.2 µM (inactive)
GI50 [25]: 36.6 µM (inactive)
GI50 [26]: 35.7 µM (inactive)
GI50 [27]: 22.2 µM (inactive)
GI50 [28]: 19.4 µM (inactive)
GI50 [29]: 17.7 µM (inactive)
GI50 [30]: 18.4 µM (inactive)
GI50 [31]: 14.4 µM (inactive)
GI50 [32]: 21.7 µM (inactive)
GI50 [33]: 17.9 µM (inactive)
GI50 [34]: 36.6 µM (inactive)
GI50 [35]: 27 µM (inactive)
GI50 [36]: 16 µM (inactive)
GI50 [37]: 14.8 µM (inactive)
GI50 [38]: 11.1 µM (inactive)
GI50 [39]: 17.4 µM (inactive)
GI50 [40]: 25.3 µM (inactive)
GI50 [41]: 43.3 µM (inactive)
GI50 [42]: 14.1 µM (inactive)
GI50 [43]: 22 µM (inactive)
GI50 [44]: 15.6 µM (inactive)
GI50 [45]: 31.1 µM (inactive)
GI50 [46]: 22.5 µM (inactive)
GI50 [47]: 36.3 µM (inactive)
GI50 [48]: 15.1 µM (inactive)
GI50 [49]: 16.1 µM (inactive)
GI50 [50]: 14.5 µM (inactive)
GI50 [51]: 18.7 µM (inactive)
GI50 [52]: 22.1 µM (inactive)
GI50 [53]: 39.1 µM (inactive)
